{"source": "patent US20260232685A1", "about": "“TRANSDERMAL PERMEATION ENHANCING COMPOSITION AND APPLICATION THEREOF IN TIMOLOL PREPARATION” (WUHAN CONFORM PHARMACEUTICAL CO., LTD., priority 2019, published 2026)", "origin": "cited, not measured here", "settings": "absorbed by the gastrointestinal tract; J. Pharm. Pharmacol., 1978, 30, 53"}
{"smiles": "CC(C)(C)NC[C@H](O)COc1nsnc1N1CCOCC1", "note": "[timolol]", "values": [{"measurement": "Hepatic first-pass effect and metabolism at other sites, share of the total dose", "result": "about 34%"}]}
